Test results published in US9776995B2, “Bicyclic sulfonamide compounds as sodium channel inhibitors” (AMGEN INC., priority 2013, dated 2017).
Read-outs that look alike come from different tables or passages of the source.

Key:
[1] = target: Nav 1.5 (Homo sapiens (Human), UniProt Q14524); assay: in-vitro Nav 1.5 PX data; settings: read-out: Nav 1.5 PX IC50
[2] = target: Nav 1.7 (Homo sapiens (Human), UniProt Q15858); assay: in-vitro Nav 1.7 PX data; type: cell-based
Chain of Nav 1.7 (Q15858 whole entry): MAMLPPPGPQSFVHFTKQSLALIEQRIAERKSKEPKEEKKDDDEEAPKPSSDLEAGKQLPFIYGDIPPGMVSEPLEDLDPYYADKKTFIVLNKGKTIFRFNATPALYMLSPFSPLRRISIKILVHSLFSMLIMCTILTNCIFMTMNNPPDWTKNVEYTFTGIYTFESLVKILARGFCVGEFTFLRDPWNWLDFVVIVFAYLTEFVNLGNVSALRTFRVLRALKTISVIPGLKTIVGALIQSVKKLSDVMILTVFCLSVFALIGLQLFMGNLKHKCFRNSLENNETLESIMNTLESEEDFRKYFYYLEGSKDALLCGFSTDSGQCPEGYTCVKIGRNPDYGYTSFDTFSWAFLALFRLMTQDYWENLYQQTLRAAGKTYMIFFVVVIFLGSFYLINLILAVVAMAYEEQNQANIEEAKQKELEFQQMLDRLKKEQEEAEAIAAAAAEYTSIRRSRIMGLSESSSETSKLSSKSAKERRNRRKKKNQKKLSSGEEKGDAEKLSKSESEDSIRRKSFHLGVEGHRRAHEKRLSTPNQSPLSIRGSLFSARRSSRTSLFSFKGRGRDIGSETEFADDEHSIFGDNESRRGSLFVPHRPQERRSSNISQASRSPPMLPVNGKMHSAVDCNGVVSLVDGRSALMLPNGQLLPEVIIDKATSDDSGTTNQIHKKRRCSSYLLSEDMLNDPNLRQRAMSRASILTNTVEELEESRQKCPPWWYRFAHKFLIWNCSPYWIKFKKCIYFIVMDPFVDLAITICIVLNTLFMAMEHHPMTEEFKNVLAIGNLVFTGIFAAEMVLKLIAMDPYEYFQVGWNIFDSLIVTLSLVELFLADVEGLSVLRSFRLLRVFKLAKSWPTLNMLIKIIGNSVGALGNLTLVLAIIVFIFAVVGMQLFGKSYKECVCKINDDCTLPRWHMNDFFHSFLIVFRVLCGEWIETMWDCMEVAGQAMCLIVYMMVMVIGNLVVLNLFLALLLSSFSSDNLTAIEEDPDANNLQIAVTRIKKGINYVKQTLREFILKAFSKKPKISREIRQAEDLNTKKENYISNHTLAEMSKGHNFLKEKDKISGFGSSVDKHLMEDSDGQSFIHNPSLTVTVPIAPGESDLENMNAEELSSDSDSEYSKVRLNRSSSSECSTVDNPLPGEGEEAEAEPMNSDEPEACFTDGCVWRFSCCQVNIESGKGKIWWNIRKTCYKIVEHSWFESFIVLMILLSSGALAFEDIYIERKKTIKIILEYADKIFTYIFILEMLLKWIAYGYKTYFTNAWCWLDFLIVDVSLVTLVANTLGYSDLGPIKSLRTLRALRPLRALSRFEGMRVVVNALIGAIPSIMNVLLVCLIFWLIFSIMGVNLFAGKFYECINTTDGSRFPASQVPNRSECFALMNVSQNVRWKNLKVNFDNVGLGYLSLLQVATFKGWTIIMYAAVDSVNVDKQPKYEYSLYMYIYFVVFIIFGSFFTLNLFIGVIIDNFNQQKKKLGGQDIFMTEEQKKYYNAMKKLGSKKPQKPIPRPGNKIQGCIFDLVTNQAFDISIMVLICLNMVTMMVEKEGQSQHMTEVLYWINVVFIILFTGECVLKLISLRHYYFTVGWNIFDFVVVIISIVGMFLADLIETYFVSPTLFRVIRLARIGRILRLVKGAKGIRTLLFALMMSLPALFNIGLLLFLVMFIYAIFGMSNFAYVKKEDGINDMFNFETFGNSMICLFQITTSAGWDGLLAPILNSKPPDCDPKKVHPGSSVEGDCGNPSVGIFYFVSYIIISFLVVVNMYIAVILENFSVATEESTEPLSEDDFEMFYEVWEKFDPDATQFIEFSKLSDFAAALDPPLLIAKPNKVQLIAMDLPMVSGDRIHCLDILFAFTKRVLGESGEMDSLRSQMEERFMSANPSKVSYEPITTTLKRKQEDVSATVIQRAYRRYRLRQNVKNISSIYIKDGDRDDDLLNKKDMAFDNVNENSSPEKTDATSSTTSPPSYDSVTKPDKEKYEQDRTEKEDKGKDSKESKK

Chain of Nav 1.5 (Q14524 whole entry): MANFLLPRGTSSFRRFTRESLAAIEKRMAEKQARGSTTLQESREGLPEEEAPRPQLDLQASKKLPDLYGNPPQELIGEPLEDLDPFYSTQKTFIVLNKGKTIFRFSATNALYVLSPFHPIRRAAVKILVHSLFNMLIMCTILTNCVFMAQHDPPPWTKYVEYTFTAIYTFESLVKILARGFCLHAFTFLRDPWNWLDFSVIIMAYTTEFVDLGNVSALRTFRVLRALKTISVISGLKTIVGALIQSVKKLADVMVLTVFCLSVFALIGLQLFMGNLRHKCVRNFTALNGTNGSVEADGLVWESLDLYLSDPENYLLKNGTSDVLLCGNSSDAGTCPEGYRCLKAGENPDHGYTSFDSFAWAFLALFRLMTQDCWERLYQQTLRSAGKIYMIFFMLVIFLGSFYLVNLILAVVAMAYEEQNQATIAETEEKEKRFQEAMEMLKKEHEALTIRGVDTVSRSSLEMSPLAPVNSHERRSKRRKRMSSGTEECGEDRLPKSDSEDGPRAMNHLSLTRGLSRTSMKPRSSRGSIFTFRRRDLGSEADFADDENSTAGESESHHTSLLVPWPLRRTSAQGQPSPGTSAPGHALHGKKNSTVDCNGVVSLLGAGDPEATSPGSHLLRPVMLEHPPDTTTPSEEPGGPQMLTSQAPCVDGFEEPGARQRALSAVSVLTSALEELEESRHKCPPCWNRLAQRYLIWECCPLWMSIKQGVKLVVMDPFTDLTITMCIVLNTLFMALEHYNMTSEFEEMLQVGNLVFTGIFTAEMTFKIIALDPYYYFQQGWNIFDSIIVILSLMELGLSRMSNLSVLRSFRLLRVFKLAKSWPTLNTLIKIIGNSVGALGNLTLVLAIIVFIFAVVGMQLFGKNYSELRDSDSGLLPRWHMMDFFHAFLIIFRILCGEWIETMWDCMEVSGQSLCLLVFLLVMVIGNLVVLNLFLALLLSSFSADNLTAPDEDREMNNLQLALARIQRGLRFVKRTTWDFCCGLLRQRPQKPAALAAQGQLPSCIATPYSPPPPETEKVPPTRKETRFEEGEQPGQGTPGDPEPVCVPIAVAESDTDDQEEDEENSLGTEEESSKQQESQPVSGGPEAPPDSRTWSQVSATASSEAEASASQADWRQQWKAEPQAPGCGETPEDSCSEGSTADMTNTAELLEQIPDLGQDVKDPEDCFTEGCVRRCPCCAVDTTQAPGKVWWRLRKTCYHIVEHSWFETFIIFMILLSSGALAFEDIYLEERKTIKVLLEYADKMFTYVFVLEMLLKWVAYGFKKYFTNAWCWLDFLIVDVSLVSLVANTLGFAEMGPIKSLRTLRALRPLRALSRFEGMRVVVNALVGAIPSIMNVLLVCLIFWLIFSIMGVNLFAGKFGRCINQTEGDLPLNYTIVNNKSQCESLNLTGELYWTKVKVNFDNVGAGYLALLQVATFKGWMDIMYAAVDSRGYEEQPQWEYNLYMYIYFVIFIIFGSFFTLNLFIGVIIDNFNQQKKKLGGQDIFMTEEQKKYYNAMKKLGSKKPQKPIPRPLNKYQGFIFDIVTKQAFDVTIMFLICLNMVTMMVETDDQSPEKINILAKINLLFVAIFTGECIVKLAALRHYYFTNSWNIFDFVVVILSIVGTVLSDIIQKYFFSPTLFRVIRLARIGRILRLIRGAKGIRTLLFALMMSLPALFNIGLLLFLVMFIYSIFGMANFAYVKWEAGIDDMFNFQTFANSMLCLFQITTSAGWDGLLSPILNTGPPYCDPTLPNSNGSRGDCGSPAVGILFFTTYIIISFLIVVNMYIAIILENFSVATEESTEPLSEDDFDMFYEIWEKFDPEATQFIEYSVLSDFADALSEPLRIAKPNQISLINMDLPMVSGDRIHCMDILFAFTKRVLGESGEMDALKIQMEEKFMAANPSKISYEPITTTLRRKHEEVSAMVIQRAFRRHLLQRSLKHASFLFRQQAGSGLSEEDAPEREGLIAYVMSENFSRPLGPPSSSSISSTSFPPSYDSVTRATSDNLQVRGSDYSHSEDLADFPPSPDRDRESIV

SMILES | IC50 ([2]; in-vitro Nav 1.7 PX data) [nM] | IC50 ([2]; in-vitro PX (PatchXpress) data) [nM] | IC50 ([1]; in-vitro Nav 1.5 PX data) [nM] | IC50 ([1]; in-vitro PX (PatchXpress) data) [nM]
COc1cc(Oc2ccccc2C)ccc1-c1nccc2cc(S(=O)(=O)Nc3ccncn3)ccc12 [Example 170, 1-(2-methoxy-4-(2-methylphenoxy)phenyl)-N-4-pyrimidinyl-6-isoquinolinesulfonamide] | 171 |  | > 10000 | 
COc1cc(-c2cc(F)cc(F)c2)c(C)cc1-c1nccc2cc(S(=O)(=O)Nc3nncs3)ccc12 [Example 172, 1-(3′,5′-difluoro-5-methoxy-2-methyl-4-biphenylyl)-N-1,3,4-thiadiazol-2-yl-] | 34.9 |  | > 10000 | 
COc1cc(Oc2ccc(F)cc2)ccc1-c1nccc2cc(S(=O)(=O)Nc3nncs3)ccc12 [Example 174, 1-(4-(4-fluorophenoxy)-2-methoxyphenyl)-N-1,3,4-thiadiazol-2-yl-6-isoquinolinesulfonamide] |  | 141 |  | > 10000
COc1cc(Oc2ccc(C)c(C)c2)ccc1-c1nccc2cc(S(=O)(=O)Nc3ccncn3)ccc12 [Example 176, 1-(4-(3,4-dimethylphenoxy)-2-methoxyphenyl)-N-4-pyrimidinyl-6-isoquinolinesulfonamide] |  | 204 |  | > 10000
COc1cc(Oc2cc(C)cc(F)c2)ccc1-c1nccc2cc(S(=O)(=O)Nc3ccncn3)ccc12 [Example 179, 1-(4-(3-fluoro-5-methylphenoxy)-2-methoxyphenyl)-N-4-pyrimidinyl-6-isoquinolinesulfonamide] |  | 77 |  | > 10000
COc1cc(Oc2cccc(C)c2)ccc1-c1nccc2cc(S(=O)(=O)Nc3ccncn3)ccc12 [Example 181, 1-(2-methoxy-4-(3-methylphenoxy)phenyl)-N-4-pyrimidinyl-6-isoquinolinesulfonamide] |  | 126 |  | > 10000
COc1cc(Oc2cc(C)ccc2F)ccc1-c1nccc2cc(S(=O)(=O)Nc3nncs3)ccc12 [Example 190, 1-(4-(2-fluoro-5-methylphenoxy)-2-methoxyphenyl)-N-1,3,4-thiadiazol-2-yl-6-isoquinolinesulfonamide] |  | 243 |  | > 10000
COc1cc(Oc2ccc(C)c(F)c2)ccc1-c1nccc2cc(S(=O)(=O)Nc3nncs3)ccc12 [Example 194, 1-(4-(3-fluoro-4-methylphenoxy)-2-methoxyphenyl)-N-1,3,4-thiadiazol-2-yl-6-isoquinolinesulfonamide] |  | 133 |  | > 10000
COc1cc(-c2cc(F)cnc2OC)c(C)cc1-c1ncnc2cc(S(=O)(=O)Nc3ccon3)ccc12 [Example 198, 4-(4-(5-fluoro-2-methoxy-3-pyridinyl)-2-methoxy-5-methylphenyl)-N-3-isoxazolyl-7-quinazolinesulfonamide] |  | 183 |  | > 10000
COc1cc(-c2cc(F)cnc2OC)c(C#N)cc1-c1ncnc2cc(S(=O)(=O)Nc3ccon3)ccc12 [Example 201, 4-(5-cyano-4-(5-fluoro-2-methoxy-3-pyridinyl)-2-methoxyphenyl)-N-3-isoxazolyl-7-quinazolinesulfonamide] |  | 424 |  | > 10000

More lines, main results first:

IC50 ([2]; in-vitro Nav 1.7 PX data) [nM] | IC50 ([2]; in-vitro PX (PatchXpress) data) [nM] | SMILES | IC50 ([1]; in-vitro Nav 1.5 PX data) [nM] | IC50 ([1]; in-vitro PX (PatchXpress) data) [nM]
33.4 |  | COc1cc(-c2ccc(F)c(F)c2)c(C)cc1-c1nccc2cc(S(=O)(=O)Nc3nncs3)ccc12 [Example 171, 1-(3′,4′-difluoro-5-methoxy-2-methyl-4-biphenylyl)-N-1,3,4-thiadiazol-2-yl-6-isoquinolinesulfonamide] | > 10000 | 
 | 197 | COc1cc(Oc2ccc(F)c(F)c2)ccc1-c1nccc2cc(S(=O)(=O)Nc3ccncn3)ccc12 [Example 175, 1-(4-(3,4-difluorophenoxy)-2-methoxyphenyl)-N-4-pyrimidinyl-6-isoquinolinesulfonamide] |  | > 10000
 | 99.3 | COc1cc(Oc2ccc(C)c(F)c2)ccc1-c1nccc2cc(S(=O)(=O)Nc3ccncn3)ccc12 [Example 177, 1-(4-(3-fluoro-4-methylphenoxy)-2-methoxyphenyl)-N-4-pyrimidinyl-6-isoquinolinesulfonamide] |  | > 10000
 | 520 | COc1cc(Oc2cc(C)cc(C)c2)ccc1-c1nccc2cc(S(=O)(=O)Nc3ccncn3)ccc12 [Example 180, 1-(4-(3,5-dimethylphenoxy)-2-methoxyphenyl)-N-4-pyrimidinyl-6-isoquinolinesulfonamide] |  | > 10000
 | 305 | COc1ccc(Oc2ccc(-c3nccc4cc(S(=O)(=O)Nc5ccncn5)ccc34)c(OC)c2)cc1 [Example 182, 1-(2-methoxy-4-(4-methoxyphenoxy)phenyl)-N-4-pyrimidinyl-6-isoquinolinesulfonamide] |  | > 10000
 | 203 | COc1cccc(Oc2ccc(-c3nccc4cc(S(=O)(=O)Nc5ccncn5)ccc34)c(OC)c2)c1 [Example 183, 1-(2-methoxy-4-(3-methoxyphenoxy)phenyl)-N-4-pyrimidinyl-6-isoquinolinesulfonamide] |  | > 10000
 | 36.3 | COc1cc(-c2cccc(C(F)(F)F)c2)c(C#N)cc1-c1nccc2cc(S(=O)(=O)Nc3ccncn3)ccc12 [Example 184, 1-(2-cyano-5-methoxy-3′-(trifluoromethyl)-4-biphenylyl)-N-4-pyrimidinyl-6-isoquinolinesulfonamide] |  | > 30000
 | 56 | COc1cc(-c2ccc(C(F)(F)F)cc2)c(C#N)cc1-c1nccc2cc(S(=O)(=O)Nc3ccncn3)ccc12 [Example 185, 1-(2-cyano-5-methoxy-4′-(trifluoromethyl)-4-biphenylyl)-N-4-pyrimidinyl-6-isoquinolinesulfonamide] |  | 20700
 | 150 | COc1cc(-c2ccc(F)cc2)c(C#N)cc1-c1nccc2cc(S(=O)(=O)Nc3ccncn3)ccc12 [Example 186, 1-(2-cyano-4′-fluoro-5-methoxy-4-biphenylyl)-N-4-pyrimidinyl-6-isoquinolinesulfonamide] |  | > 10000
 | 99.4 | COc1cc(Oc2cc(F)ccc2F)ccc1-c1nccc2cc(S(=O)(=O)Nc3nncs3)ccc12 [Example 187, 1-(4-(2,5-difluorophenoxy)-2-methoxyphenyl)-N-1,3,4-thiadiazol-2-yl-6-isoquinolinesulfonamide] |  | > 10000
 | 215 | COc1cc(-c2cc(C)cnc2OC)ccc1-c1nccc2cc(S(=O)(=O)Nc3nncs3)ccc12 [Example 188, 1-(2-methoxy-4-(2-methoxy-5-methyl-3-pyridinyl)phenyl)-N-1,3,4-thiadiazol-2-yl-6-isoquinolinesulfonamide] |  | > 30000
 | 394 | COc1cc(-c2ccc(-c3nccc4cc(S(=O)(=O)Nc5nncs5)ccc34)c(OC)c2)c(F)cn1 [Example 189, 1-(4-(5-fluoro-2-methoxy-4-pyridinyl)-2-methoxyphenyl)-N-1,3,4-thiadiazol-2-yl-6-isoquinolinesulfonamide] |  | > 30000
 | 76 | COc1cc(-c2ccc(F)c(F)c2)c(C#N)cc1-c1nccc2cc(S(=O)(=O)Nc3ccncn3)ccc12 [Example 197, 1-(2-cyano-3′,4′-difluoro-5-methoxy-4-biphenylyl)-N-4-pyrimidinyl-6-isoquinolinesulfonamide] |  | > 10000
 | 36 | COc1cc(-c2ccc(F)c(F)c2)c(C)cc1-c1ncnc2cc(S(=O)(=O)Nc3ccon3)ccc12 [Example 199, 4-(3′,4′-difluoro-5-methoxy-2-methyl-4-biphenylyl)-N-3-isoxazolyl-7-quinazolinesulfonamide] |  | > 10000
